Measured values reported in ChEMBL document CHEMBL4831534, “Design, Synthesis, and Monoamine Oxidase Inhibitory Activity of (+)-Cinchonaminone and Its Simplified Derivatives” (ACS Med Chem Lett, 2021).

Columns and labels:
[1] = biological target: T1, Amine oxidase [flavin-containing] A (Homo sapiens, UniProt P21397); experiment: Inhibition of human recombinant MAO-A expressed in baculovirus infected BTI insect cells using luminogenic MAO substrate incubated for 1 hr by MAO-Glo assay
T1 sequence (P21397 whole entry): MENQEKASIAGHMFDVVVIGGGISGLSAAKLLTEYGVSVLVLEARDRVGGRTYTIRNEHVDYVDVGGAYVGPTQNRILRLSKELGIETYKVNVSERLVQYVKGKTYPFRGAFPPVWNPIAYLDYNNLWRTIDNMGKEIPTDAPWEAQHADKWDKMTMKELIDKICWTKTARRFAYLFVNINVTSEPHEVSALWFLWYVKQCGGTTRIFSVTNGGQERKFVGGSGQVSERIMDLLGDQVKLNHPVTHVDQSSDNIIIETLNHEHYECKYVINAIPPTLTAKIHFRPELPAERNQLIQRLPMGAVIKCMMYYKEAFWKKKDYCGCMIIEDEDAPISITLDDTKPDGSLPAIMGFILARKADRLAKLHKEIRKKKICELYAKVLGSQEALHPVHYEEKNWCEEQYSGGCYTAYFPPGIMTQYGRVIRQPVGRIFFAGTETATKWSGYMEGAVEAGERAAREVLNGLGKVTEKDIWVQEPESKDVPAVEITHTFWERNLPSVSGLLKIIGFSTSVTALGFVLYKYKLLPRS

[2] = biological target: T2, Amine oxidase [flavin-containing] B (Homo sapiens, UniProt P27338); experiment: Inhibition of human recombinant MAO-B expressed in baculovirus infected BTI insect cells using luminogenic MAO substrate incubated for 1 hr by MAO-Glo assay
T2 sequence (P27338 whole entry): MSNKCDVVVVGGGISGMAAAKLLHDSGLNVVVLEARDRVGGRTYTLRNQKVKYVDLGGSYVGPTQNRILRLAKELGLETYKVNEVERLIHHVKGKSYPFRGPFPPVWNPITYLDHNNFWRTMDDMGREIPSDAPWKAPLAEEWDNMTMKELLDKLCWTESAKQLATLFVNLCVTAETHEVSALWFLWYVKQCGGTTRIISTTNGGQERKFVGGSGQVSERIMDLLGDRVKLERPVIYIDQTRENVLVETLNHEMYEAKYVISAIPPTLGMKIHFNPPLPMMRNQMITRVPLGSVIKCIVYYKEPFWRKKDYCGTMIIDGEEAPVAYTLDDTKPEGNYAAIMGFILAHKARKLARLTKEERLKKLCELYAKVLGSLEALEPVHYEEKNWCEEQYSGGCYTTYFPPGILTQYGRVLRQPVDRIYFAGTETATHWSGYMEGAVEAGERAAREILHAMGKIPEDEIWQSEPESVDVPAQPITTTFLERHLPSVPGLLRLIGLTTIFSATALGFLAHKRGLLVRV

[3] = species: Homo sapiens; experiment: Selectivity index, ratio of IC50 for human recombinant MOA-A expressed in baculovirus infected BTI insect cells to IC50 for MAO-B expressed in baculovirus infected BTI insect cells; details: time 1.0 hrs

IC50 [1] | IC50 [2] | SMILES | Selectivity Index [3]
> 1000 µM | 488 µM | C=C[C@@H]1CNCC[C@@H]1CC(=O)c1[nH]c2ccccc2c1CCO | 
720 µM | 66.6 µM | O=C(CC1CCNCC1)c1cc2ccccc2[nH]1 | 11
> 1000 µM | > 1000 µM | O=C(CC1CCNCC1)c1[nH]c2ccccc2c1CCO | 
> 1000 µM | 412 µM | C=C[C@H]1CNCC[C@H]1CC(=O)c1[nH]c2ccccc2c1CCO | 
82.5 µM | 121 µM | Cc1c(C(=O)CC2CCNCC2)[nH]c2ccccc12 | 
